Experiments:
Assay type in all cases: cell-based
[1] = target: T1, AGTR1 (Homo sapiens, UniProt P30556); test: DiscoveRx β-arrestin2 recruitment assay (enzyme complementation, Pathunter CHO-K1 AGTR1 β-arrestin cell line); conditions: DiscoveRx β-arrestin2 recruitment; for DiscoveRx β-arrestin2 Ymax (%): maximal response
T1 construct: host or cells: Pathunter CHO-K1 AGTR1 β-arrestin cell line (CHO-K1)
T1 sequence (P30556 1-359): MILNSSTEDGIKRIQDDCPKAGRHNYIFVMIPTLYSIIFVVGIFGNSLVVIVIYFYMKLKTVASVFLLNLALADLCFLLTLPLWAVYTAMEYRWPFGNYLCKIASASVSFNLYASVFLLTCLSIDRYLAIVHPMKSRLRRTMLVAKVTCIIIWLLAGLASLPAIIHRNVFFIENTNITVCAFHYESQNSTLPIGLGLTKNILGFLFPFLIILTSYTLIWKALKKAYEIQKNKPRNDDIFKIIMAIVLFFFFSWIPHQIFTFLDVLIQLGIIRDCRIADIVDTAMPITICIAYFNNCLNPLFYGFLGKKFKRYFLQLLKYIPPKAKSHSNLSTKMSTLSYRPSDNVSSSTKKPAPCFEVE
Method in brief: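 Chemiluminescent enzyme-complementation read-out of β-arrestin2 recruitment to AGTR1 in engineered CHO-K1 cells after 90 min compound exposure at 37° C. Values are 4-parameter logistic EC50s in agonist mode, IC50s in antagonist mode, with efficacy relative to the maximal All response.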

[2] = target: T2, hAT1R (Homo sapiens, UniProt P30556); test: BRET β-arrestin2 biosensor assay, higher receptor expression (hAT1R 5 ng/well), HEK293 cells; conditions: for EC50: High AT1R Expression
T2 sequence (P30556 1-359): T1 sequence (P30556 1-359)

[3] = target: T2, hAT1R; test: BRET Gq biosensor assay, agonist response, HEK293 cells; conditions: section of the 42nd table directly before the BRET P63 section
Method in brief: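 Agonist EC50 derived from a 4-parameter fit of BRET2 ratio (GFP 515 nm/Rluc 410 nm), scaled between unstimulated control and maximal AngII response. Readings taken 5 min after compound addition at room temperature, with 2 μM coelenterazine, in HEK293 cells expressing hAT1R, Gαq-Rluc, Gβ1 and GFP-Gγ1 (transfected two days earlier).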

Compound	EC50 [1]	DiscoveRx β-arrestin2 Ymax (%) [1]	BRET β-Arrestin2 High AT1R Expression Ymax (%) [2]	EC50 [2]	EC50 [3]
CCCCc1ncc(C(=O)N(C)C)n1Cc1ccc(-c2cc(-c3ccccc3)ccc2-c2nn[nH]n2)cc1 [Example 383, 1-((6′-(2H-tetrazol-5-yl)-[1,1′:3′,1″-terphenyl]-4-yl)methyl)-2-butyl-N,N-dimethyl-1H-imidazole-5-carboxamide]	70.4 nM	22.8%	66.3%	309 nM	7740 nM
CCCCc1nc(Cl)c(C(=O)O)n1Cc1ccc(-c2cc(-c3cncc(OC)c3)ccc2-c2nn[nH]n2)cc1 [Example 385]	31.4 nM	35.4%	87.0%	57.1 nM	1110 nM
CCCCc1nc(Cl)c(C(=O)O)n1Cc1ccc(-c2cc(-c3cnn(C4CC4)c3)ccc2-c2nn[nH]n2)cc1 [Example 386]	8.4 nM	27.3%	66.7%	45.2 nM	59100 nM
CCCCc1nc(Cl)c(C(=O)O)n1Cc1ccc(-c2cc(-c3cnn(C(F)F)c3)ccc2-c2nn[nH]n2)cc1 [Example 387]	16.6 nM	32.8%	81.9%	18.2 nM	3420 nM
CCCCc1nc(Cl)c(C(=O)O)n1Cc1ccc(-c2cc(-c3cnn(C)c3)ccc2-c2nn[nH]n2)cc1 [Example 389]	91.8 nM	26.7%	35.3%	189 nM	2020 nM
CCCCc1nc(Cl)c(C(N)=O)n1Cc1ccc(-c2cc(-c3ccccc3)ccc2-c2nn[nH]n2)cc1 [Example 393, 1-((6′-(2H-tetrazol-5-yl)-[1,1′:3′,1″-terphenyl]-4-yl)methyl)-2-butyl-4-chloro-1H-imidazole-5-carboxamide]	9.1 nM	41.2%	86.1%	12 nM	48.8 nM
CCCCc1nc(Cl)c(C(N)=O)n1Cc1ccc(-c2cc(-c3ccccc3)ccc2-c2noc(=O)[nH]2)cc1 [Example 394]	365 nM	59.1%	94.9%	37.3 nM	76.4 nM
CCCc1nc(CC)c(C(=O)OCC)n1Cc1ccc(-c2cc(-c3ccccc3)ccc2-c2nn[nH]n2)cc1 [Example 395, ethyl 1-((6′-(2H-tetrazol-5-yl)-[1,1′:3′,1″-terphenyl]-4-yl)methyl)-4-ethyl-2-propyl-1H-imidazole-5-carboxylate]	16.1 nM	54.1%	92.4%	20.4 nM	12.7 nM
CCCc1nc(CC)c(C(=O)NCC(F)(F)F)n1Cc1ccc(-c2cc(-c3ccccc3)ccc2-c2nn[nH]n2)cc1 [Example 397, 1-((6′-(2H-tetrazol-5-yl)-[1,1′:3′,1″-terphenyl]-4-yl)methyl)-4-ethyl-2-propyl-N-(2,2,2-trifluoroethyl)-1H-imidazole-5-carboxamide]	78.2 nM	46.5%	87.9%	80.9 nM	124 nM
CCCc1nc(CC)c(C(N)=O)n1Cc1ccc(-c2cc(-c3ccccc3)ccc2-c2nn[nH]n2)cc1 [Example 398, 1-((6′-(2H-tetrazol-5-yl)-[1,1′:3′,1″-terphenyl]-4-yl)methyl)-4-ethyl-2-propyl-1H-imidazole-5-carboxamide]	12.7 nM	53.6%	91.0%	13.4 nM	35.1 nM
CCCc1nc(CC)c(C(=O)O)n1Cc1ccc(-c2cc(-c3ccccc3)ccc2-c2noc(=O)[nH]2)cc1 [Example 399]	13.4 nM	45.8%	92.1%	7.2 nM	1170 nM
CCCc1nc(CC)c(C(=O)O)n1Cc1ccc(-c2cc(-c3ccccc3)ccc2C(=O)O)cc1 [Example 400, 1-((6′-carboxy-[1,1′:3′,1″-terphenyl]-4-yl)methyl)-4-ethyl-2-propyl-1H-imidazole-5-carboxylic acid]	150 nM	40.4%	88.3%	172 nM	892 nM
CCCc1nc(C(C)(C)O)c(C(=O)OCC)n1Cc1ccc(-c2cc(-c3ccccc3)ccc2-c2nn[nH]n2)cc1 [Example 401, ethyl 1-((6′-(2H-tetrazol-5-yl)-[1,1′:3′,1″-terphenyl]-4-yl)methyl)-4-(2-hydroxypropan-2-yl)-2-propyl-1H-imidazole-5-carboxylate]	544 nM	43.7%	74.5%	256 nM	2240 nM
CCCc1nc(C(C)(C)O)c(C(=O)O)n1Cc1ccc(-c2cc(-c3ccccc3)ccc2-c2nn[nH]n2)cc1 [Example 402, sodium 1-((6′-(2H-tetrazol-5-yl)-[1,1′:3′,1″-terphenyl]-4-yl)methyl)-4-(2-hydroxypropan-2-yl)-2-propyl-1H-imidazole-5-carboxylate]	9.9 nM	57.0%	77.8%	17.9 nM	64.9 nM
CCCc1nc(C(C)(C)O)c(C(=O)[O-])n1Cc1ccc(-c2cc(-c3ccccc3)ccc2-c2noc(=O)[nH]2)cc1.[Na+] [Example 403, 4-(2-hydroxypropan-2-yl)-1-((6′-(5-oxo-4,5-dihydro-1,2,4-oxadiazol-3-yl)-[1,1′:3′,1″-terphenyl]-4-yl)methyl)-2-propyl-1H-imidazole-5-carboxylic acid, Na+]	14.2 nM	61.4%	88.6%	9.2 nM	70.9 nM
CCCCc1nc(Cl)c(C(=O)O)n1Cc1ccc(-c2cc(N3CC(C)(C)c4ccccc43)ccc2-c2noc(=O)[nH]2)cc1 [Example 405, 2-butyl-4-chloro-1-((5′-(3,3-dimethylindolin-1-yl)-2′-(5-oxo-4,5-dihydro-1,2,4-oxadiazol-3-yl)-[1,1′-biphenyl]-4-yl)methyl)-1H-imidazole-5-carboxylic acid]	57.5 nM	32.8%	95.8%	42 nM	492 nM
CCCCc1nc(Cl)c(C(=O)O)n1Cc1ccc(-c2cc(-c3ccc(C(=O)N(C)C)cc3)ccc2-c2noc(=O)[nH]2)cc1 [Example 409]	59.3 nM	50.6%	88.7%	73.2 nM	136 nM
CCCCc1ncc(-c2nnc(C)o2)n1Cc1ccc(-c2cc(-c3ccccc3)ccc2-c2nn[nH]n2)cc1 [Example 413, 2-(1-((6′-(2H-tetrazol-5-yl)-[1,1′:3′,1″-terphenyl]-4-yl)methyl)-2-butyl-1H-imidazol-5-yl)-5-methyl-1,3,4-oxadiazole]	21.8 nM	16.3%	47.5%	55.6 nM	351 nM

Reference: patent publication US12037324B2, “Biarylmethyl heterocycles” (Université de Montréal, priority 2016, dated 2024)
